Assay results published in US20210220370A1, “SELECTIVE HDAC8 INHIBITORS AND THEIR USES” (HOCHSCHULE DARMSTADT, priority 2015, published 2021).
Like-named read-outs stand apart in the source and are kept apart here.

Tests used:
[1] = tested on: T cell leukemia cell line JURKAT; assay: Growth inhibition of cancer cell line, resazurin assay; details: for GI50: read-out: GI50 JURKAT
[2] = tested on: uterine leiomyosarcoma cell line SKUT-1; assay: as above; format: cell-based, Human; details: Table 2, resazurin assay
[3] = tested on: breast cancer cell line MCF-7; assay: as above; format: cell-based, Human; details: Table 2, resazurin assay
HDAC5 = HDAC5 (Homo sapiens, UniProt Q9UQL6); assay: HDAC5 colorimetric assay, substrate Boc-Lys(TFA)-AMC
HDAC5, sequence (Q9UQL6 whole entry): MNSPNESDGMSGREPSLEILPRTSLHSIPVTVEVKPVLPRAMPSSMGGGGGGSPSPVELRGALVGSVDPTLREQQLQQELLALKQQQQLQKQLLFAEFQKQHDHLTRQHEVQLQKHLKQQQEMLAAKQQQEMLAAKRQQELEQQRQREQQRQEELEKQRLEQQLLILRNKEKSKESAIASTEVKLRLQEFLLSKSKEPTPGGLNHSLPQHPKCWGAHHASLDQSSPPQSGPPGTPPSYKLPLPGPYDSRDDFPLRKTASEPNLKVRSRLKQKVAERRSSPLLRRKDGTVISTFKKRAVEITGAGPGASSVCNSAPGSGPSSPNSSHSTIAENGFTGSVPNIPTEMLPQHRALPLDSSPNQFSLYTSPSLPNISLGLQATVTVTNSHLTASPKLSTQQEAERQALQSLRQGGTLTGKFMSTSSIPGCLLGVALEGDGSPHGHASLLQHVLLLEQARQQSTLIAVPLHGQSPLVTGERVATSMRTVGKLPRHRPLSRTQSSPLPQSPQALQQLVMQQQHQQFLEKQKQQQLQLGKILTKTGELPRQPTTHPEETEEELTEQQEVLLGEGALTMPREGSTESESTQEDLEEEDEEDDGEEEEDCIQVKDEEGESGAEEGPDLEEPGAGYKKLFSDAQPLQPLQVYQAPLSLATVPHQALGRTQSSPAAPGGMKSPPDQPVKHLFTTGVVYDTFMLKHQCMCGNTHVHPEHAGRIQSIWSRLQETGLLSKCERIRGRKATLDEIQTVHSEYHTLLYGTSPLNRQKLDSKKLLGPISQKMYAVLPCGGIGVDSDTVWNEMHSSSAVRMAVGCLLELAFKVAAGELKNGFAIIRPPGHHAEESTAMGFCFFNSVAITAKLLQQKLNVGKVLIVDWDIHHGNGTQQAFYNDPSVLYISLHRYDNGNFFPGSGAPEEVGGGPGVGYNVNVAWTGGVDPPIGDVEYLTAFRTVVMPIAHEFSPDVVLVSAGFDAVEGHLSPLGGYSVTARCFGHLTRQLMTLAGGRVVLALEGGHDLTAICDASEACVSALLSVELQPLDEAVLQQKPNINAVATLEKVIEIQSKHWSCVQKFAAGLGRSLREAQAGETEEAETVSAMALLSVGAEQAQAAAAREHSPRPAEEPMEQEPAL

HDAC7 = target: T1, HDAC7 (Homo sapiens, UniProt Q8WUI4); assay: HDAC7 colorimetric assay, substrate Boc-Lys(TFA)-AMC
T1 sequence (Q8WUI4 1-952): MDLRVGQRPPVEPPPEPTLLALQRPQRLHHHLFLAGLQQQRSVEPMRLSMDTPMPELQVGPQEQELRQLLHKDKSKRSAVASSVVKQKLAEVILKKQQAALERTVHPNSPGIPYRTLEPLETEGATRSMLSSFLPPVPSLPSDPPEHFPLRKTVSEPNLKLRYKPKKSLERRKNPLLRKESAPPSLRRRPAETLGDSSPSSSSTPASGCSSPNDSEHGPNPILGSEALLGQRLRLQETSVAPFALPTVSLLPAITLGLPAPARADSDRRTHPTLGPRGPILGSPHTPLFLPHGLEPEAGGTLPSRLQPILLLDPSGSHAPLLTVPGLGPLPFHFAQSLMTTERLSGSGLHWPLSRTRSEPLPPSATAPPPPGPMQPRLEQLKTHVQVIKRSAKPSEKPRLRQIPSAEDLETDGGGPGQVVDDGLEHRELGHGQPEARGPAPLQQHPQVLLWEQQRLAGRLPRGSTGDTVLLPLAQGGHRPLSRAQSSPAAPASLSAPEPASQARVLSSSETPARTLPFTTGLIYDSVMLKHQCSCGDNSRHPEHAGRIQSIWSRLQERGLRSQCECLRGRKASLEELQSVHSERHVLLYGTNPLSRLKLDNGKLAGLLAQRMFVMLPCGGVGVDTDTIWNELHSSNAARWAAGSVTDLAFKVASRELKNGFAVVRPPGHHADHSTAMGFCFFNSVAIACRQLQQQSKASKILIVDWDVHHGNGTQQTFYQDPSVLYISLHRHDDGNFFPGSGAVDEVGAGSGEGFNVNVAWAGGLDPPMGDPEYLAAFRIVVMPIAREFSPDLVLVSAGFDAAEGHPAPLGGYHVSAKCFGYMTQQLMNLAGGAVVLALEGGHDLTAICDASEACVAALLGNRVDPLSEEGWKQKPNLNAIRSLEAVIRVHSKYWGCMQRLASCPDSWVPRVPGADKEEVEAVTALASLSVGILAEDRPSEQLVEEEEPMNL

HDAC6 = target: T2, HDAC6 (Homo sapiens, UniProt Q9UBN7); assay: HDAC6 colorimetric assay, substrate Boc-Lys(Ac)-AMC; format: biochemical
T2 sequence (Q9UBN7 1-1215): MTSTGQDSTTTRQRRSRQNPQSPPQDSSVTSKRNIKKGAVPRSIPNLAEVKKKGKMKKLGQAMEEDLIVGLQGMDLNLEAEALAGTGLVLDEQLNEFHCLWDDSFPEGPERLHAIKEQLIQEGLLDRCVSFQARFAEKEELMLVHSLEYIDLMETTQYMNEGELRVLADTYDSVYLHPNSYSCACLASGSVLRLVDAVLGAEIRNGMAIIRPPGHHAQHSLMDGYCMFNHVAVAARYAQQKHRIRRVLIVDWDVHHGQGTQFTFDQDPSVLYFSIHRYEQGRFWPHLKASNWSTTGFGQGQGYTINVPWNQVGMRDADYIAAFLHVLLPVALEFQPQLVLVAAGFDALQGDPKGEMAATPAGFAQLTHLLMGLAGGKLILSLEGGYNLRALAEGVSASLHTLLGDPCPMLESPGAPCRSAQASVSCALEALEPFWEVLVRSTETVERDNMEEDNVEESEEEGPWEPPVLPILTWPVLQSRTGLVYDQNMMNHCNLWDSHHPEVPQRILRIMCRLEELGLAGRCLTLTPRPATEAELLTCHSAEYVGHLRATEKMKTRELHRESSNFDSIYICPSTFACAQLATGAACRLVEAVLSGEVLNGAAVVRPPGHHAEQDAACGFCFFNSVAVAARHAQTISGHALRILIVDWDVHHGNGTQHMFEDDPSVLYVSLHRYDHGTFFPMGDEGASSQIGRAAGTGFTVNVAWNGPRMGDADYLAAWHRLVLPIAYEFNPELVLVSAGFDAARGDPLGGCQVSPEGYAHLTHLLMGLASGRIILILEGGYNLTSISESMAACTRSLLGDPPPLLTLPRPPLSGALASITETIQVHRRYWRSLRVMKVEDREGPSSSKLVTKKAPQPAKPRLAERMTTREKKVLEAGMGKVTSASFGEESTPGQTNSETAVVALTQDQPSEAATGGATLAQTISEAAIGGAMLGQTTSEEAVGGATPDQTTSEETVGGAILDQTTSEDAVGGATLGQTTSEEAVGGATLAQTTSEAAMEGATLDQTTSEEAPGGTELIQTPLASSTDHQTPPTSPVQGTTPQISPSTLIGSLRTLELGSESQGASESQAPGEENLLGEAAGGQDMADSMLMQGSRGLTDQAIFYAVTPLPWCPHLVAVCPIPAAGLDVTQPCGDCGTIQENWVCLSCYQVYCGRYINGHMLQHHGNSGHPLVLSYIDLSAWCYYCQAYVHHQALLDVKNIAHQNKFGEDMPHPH

HDAC1 = HDAC1 (Homo sapiens, UniProt Q13547); assay: HDAC1 colorimetric assay, substrate Boc-Lys(Ac)-AMC
HDAC1, sequence (Q13547 whole entry): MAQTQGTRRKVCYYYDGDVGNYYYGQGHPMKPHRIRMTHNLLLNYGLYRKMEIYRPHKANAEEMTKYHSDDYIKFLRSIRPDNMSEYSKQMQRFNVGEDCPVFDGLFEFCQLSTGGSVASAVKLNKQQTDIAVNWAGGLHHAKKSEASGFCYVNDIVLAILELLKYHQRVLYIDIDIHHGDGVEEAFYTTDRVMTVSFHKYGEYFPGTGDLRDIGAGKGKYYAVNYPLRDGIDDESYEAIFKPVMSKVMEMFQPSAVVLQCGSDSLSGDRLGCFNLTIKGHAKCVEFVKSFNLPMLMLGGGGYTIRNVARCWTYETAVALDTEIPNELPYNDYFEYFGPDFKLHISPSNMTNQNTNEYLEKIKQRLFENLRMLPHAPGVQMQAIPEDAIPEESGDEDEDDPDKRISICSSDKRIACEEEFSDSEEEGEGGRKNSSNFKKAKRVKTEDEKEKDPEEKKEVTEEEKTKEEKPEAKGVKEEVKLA
Procedure: 1 nM of HDAC1 was incubated with increasing concentrations of the respective compound for 30 minutes at 30° C. The reaction was initiated by addition of 50 μM of the substrate Boc-Lys(Ac)-AMC. After an incubation of 60 minutes the reaction was stopped by addition of 20 μM SAHA and the deacetylated substrate was converted into a fluorescent product by the addition of trypsin.

HDAC2 = HDAC2 (Homo sapiens, UniProt Q92769); assay: HDAC2 colorimetric assay, substrate Boc-Lys(Ac)-AMC; format: biochemical
HDAC2, sequence (Q92769 whole entry): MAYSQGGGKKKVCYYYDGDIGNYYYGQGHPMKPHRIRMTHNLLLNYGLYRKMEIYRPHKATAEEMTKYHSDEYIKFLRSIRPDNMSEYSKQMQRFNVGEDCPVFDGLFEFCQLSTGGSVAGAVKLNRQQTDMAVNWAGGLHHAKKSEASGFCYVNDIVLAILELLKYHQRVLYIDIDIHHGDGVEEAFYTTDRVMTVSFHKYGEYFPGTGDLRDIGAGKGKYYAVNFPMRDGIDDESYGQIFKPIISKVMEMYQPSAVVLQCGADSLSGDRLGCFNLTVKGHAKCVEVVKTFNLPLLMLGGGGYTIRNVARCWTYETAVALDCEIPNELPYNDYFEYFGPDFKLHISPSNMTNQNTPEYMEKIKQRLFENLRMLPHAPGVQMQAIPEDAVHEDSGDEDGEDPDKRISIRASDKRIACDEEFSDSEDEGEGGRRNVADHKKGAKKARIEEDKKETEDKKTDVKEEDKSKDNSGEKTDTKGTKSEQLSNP

HDAC3 = HDAC3 (Homo sapiens, UniProt O15379); assay: HDAC3 colorimetric assay, substrate Boc-Lys(Ac)-AMC; format: biochemical; details: Table 1
HDAC3, sequence (O15379 whole entry): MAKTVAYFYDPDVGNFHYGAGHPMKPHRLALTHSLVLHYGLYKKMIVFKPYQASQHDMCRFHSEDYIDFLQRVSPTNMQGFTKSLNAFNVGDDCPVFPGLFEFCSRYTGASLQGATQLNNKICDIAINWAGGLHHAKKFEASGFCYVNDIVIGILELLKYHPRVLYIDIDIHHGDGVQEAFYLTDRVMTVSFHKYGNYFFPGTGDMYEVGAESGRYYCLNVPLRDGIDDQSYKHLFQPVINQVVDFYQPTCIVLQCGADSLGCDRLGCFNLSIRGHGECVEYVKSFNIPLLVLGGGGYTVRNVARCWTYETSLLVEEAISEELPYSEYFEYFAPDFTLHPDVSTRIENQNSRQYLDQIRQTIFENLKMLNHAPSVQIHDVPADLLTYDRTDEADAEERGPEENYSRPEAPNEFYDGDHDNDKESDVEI
HDAC3, sequence (Q9Y618 395-489 partner limits assumed): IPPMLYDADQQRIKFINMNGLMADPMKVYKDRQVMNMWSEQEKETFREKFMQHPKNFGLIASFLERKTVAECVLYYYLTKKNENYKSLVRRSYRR

HDAC8 = target: T3, HDAC8 (Homo sapiens, UniProt Q9BY41); assay: HDAC8 colorimetric assay, substrate Boc-Lys(TFA)-AMC
T3 sequence (Q9BY41 1-377): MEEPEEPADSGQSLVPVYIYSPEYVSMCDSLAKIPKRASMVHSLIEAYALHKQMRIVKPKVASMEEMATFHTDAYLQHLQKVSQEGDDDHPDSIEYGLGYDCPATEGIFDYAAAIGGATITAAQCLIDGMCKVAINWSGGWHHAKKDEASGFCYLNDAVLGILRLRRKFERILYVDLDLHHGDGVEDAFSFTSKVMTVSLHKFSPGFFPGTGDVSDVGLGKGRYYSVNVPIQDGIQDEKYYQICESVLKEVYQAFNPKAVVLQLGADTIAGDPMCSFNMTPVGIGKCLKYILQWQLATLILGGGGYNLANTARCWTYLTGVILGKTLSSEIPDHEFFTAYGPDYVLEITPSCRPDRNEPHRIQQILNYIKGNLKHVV
Procedure: 1 nM of HDAC4 was incubated with increasing concentrations of the respective compound for 30 minutes at 30° C. The reaction was initiated by addition of 20 μM of the substrate Boc-Lys(trifluoracetyl)-AMC. After an incubation of 60 minutes the reaction was stopped by addition of 20 μM SAHA and the deacetylated substrate was converted into a fluorescent product by the addition of trypsin.

HDAC4 = HDAC4 (Homo sapiens, UniProt P56524); format: biochemical; details: Table 1
HDAC4, sequence (P56524 whole entry): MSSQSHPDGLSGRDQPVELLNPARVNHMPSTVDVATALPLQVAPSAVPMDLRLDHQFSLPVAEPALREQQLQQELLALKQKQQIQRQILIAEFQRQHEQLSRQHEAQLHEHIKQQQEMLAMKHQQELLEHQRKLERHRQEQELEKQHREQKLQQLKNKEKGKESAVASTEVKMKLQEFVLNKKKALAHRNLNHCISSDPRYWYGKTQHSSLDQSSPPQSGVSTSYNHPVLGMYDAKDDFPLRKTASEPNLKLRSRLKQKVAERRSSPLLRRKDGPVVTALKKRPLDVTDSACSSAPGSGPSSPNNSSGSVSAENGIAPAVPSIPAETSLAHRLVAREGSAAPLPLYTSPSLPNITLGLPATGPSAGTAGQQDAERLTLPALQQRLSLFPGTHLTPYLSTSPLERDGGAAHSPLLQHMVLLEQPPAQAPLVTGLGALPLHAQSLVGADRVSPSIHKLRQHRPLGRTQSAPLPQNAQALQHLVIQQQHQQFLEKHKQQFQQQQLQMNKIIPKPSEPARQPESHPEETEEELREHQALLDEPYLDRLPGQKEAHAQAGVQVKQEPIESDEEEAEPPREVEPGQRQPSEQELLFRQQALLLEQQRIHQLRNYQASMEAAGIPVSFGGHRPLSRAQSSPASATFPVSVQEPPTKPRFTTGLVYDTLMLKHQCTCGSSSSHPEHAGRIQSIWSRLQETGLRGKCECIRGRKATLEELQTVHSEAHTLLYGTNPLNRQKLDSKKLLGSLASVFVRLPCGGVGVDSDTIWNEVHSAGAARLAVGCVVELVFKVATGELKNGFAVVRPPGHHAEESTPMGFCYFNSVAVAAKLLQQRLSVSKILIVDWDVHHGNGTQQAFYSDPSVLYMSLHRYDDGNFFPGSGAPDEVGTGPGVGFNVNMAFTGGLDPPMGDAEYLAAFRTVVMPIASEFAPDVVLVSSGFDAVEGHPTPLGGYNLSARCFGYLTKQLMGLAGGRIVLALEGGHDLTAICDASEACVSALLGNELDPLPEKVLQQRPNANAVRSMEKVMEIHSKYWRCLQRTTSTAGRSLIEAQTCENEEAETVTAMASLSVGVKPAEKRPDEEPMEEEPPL

[4] = IC50 for HDAC7, FIG. 3, 20 μM Boc-Lys(TFA)-AMC
[5] = IC50 for HDAC8, FIG. 3, 20 μM Boc-Lys(TFA)-AMC
[6] = IC50 for HDAC1, FIG. 3, 50 μM Boc-Lys(Ac)-AMC

SMILES | GI50 ([1]; Homo sapiens, Jurkat) [µM] | GI50 ([2]; Homo sapiens, SK-UT-1) [µM] | GI50 ([3]; Homo sapiens, MCF7) [µM] | IC50 (HDAC1; IC50 HDAC1, Table 1) [µM] | IC50 (HDAC5) [µM] | IC50 (HDAC3) [µM] | IC50 (HDAC7; IC50 HDAC7, Table 1) [µM] | IC50 (HDAC6; Table 1, read-out: IC50 HDAC6) [µM] | IC50 (HDAC8; IC50 HDAC8, Table 1) [µM] | IC50 (HDAC4) [µM] | IC50 (HDAC2; Table 1) [µM] | IC50 (HDAC7; [4]) [µM] | IC50 (HDAC8; [5]) [µM] | IC50 (HDAC1; [6]) [µM] | further results
O=C(CCCCCCC(=O)Nc1ccccc1)NO [Compound 1, Vorinostat, reference compound] | 3.7 ± 0.4 | 5.4 ± 0.4 | 3.7 ± 0.4 |  |  |  |  |  |  |  |  |  |  |  | 
COc1ccc(Cn2ccc3ccc(C(=O)NO)cc32)cc1 [Compound 6, PCI-34051, reference compound] |  |  |  |  |  |  |  |  |  |  |  |  |  |  | GI50 ([1]; Table 2, resazurin assay): 40 ± 4 µM; GI50 ([2]; read-out: GI50 SK-UT-1): 136 ± 62 µM; GI50 ([3]; read-out: GI50 MCF7): 65 ± 18 µM
N=C1Sc2ccccc2C2=NCCCN12 [Compound 13a, 3,4-Dihydrobenzo[e]Pyrimido[1,2-c][1,3]Thiazin-6(2H)-Imine] | 63 ± 8 | 736 ± 659 | > 1000 | 3.6 ± 0.8 |  |  |  |  |  |  |  |  |  |  | IC50 (HDAC5; read-out: IC50 HDAC5, Table 1): 0.11 ± 0.01 µM; IC50 (HDAC7; read-out: IC50 HDAC7, Table 1): 0.22 ± 0.02 µM; GI against JURKAT cells [1]: 63 µM; times less active against JURKAT cells than on the isolated HDAC8 enzyme ([1]; ratio of JURKAT value to HDAC8 IC50): more than 5700; IC50 (HDAC6): 6.7 ± 0.8 µM; IC50 (HDAC2): 32 ± 1.5 µM
N=C1Sc2ccccc2C2=NCCN12 [Compound 13b, 2H-Benzo[e]Imidazo[1,2-c][1,3]Thiazin-5(3H)-Imine] | 558 ± 342 | 343 ± 191 | 213 ± 50 | > 50 | > 50 | > 50 | 1.3 ± 0.7 | > 50 | 4.4 ± 0.8 | > 50 | > 50 |  |  |  | 
N=C1Sc2ccc(Cl)cc2C2=NCCN12 [Compound 13c, 9-Chloro-2H-Benzo[e]Imidazo[1,2-c][1,3]Thiazin-5(3H)-Imine] | 67 ± 8 | 64 ± 7 | 60 ± 6 | 21 ± 1 | 13 | > 50 | 0.5 ± 0.2 | 32 ± 18 | 0.18 ± 0.02 | > 50 | > 50 | 0.51 | 0.2 | 20 | 
CN(C)c1ccc2c(c1)SC(=N)N1CCCN=C21 [Compound 13d, 6-Imino-N,N-Dimethyl-2,3,4,6-Tetrahydrobenzo[e]Pyrimido[1,2-c][1,3]Thiazin-9-Imine] | 153 ± 28 | 106 ± 21 | 200 ± 58 |  | 12 | > 50 | 2 ± 0.5 | 14 ± 1 | 0.072 ± 0.003 | > 50 | > 50 | 2.1 | 0.071 | 34 | 
N=C1Sc2ccc(Cl)cc2C2=NCCCN12 [Compound 13e, 10-Chloro-3,4-Dihydrobenzo[e]Pyrimido[1,2-c][1,3]Thiazin-6(2H)-Imine] | 56 ± 9 | > 1000 | > 1000 |  | 1 | 20 ± 1 |  | 1.2 ± 0.4 | 0.0059 ± 0.0003 | 5.7 ± 0.3 | > 50 | 0.08 | 0.0055 | 7.9 | 
N=C1Sc2cc(F)ccc2C2=NCCCN12 [Compound 13f, 9-Fluoro-3,4-Dihydrobenzo[e]Pyrimido[1,2-c][1,3]Thiazin-6(2H)-Imine] | 33 ± 3 | 147 ± 73 | > 1000 | 2.9 ± 0.3 | 0.17 ± 0.02 | 10 ± 0.56 | 2.6 ± 0.4 | 9 ± 4 | 0.0041 ± 0.0002 | 2.84 ± 0.13 | > 50 |  |  |  | 
N=C1Sc2ccccc2C2=NCCCN12 [Compound P2742, 6H-6-Imino-(2,3,4,5-tetrahydropyrimido)[1,2-c]-[1,3]benzothiazine, reference compound] |  |  |  |  |  |  |  |  |  |  |  |  |  | 3 | IC50 (HDAC5; read-out: IC50 for HDAC5, FIG. 3, 20 μM Boc-Lys(TFA)-AMC): 0.11 µM; IC50 (HDAC7): 0.24 µM
